22 compounds from patent US20260315464A1, “COMPOSITIONS, METHODS, AND SYSTEMS FOR MODULATING SPLICING OF MSH3” (REVIR THERAPEUTICS, INC., priority 2023, published 2026) can be followed below.

SMILES strings stand for the structures.

The test system of this assay is MSH3. Put plainly: QPCR assay for levels of MSH3 upon compound treatment in HEK293T or AD293 cells (fold-change of MSH3 transcript, EC50 of MSH3 downregulation; total MSH3 exons 13/14, exons 20/21; Table 8). It is filed as cell-based. To be noted: for mrna remaining at 1 µM / mrna remaining at 10 µM: Homo sapiens, fold-change of the MSH3 transcript, normalized to GAPDH; for mrna remaining at 1 µM: 1 μM compound; for mrna remaining at 10 µM: 10 μM compound; for EC50: EC50 of MSH3 downregulation, XtalPi. Put shortly: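 MSH3 mRNA was quantified by TaqMan qPCR covering exons 13/14, exons 20/21, exon 13/PE14A and exon 20/PE21A, with GAPDH as reference. Cells used were HEK293T or AD293, treated with compound at 1 μM and […].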

As for `Cc1nn(C)nc1-c1cnc2c(c1)C(=O)N(c1ccc(S[C@H]3C[C@]4(C)CC[C@](C)(C3)N4)nn1)C2` [Compound 611, 3-(2,5-dimethyl-2H-1,2,3-triazol-4-yl)-6-(6-(((1R,3s,5S)-1,5-dimethyl-8-azabicyclo[3.2.1]octan-3-yl)thio)pyridazin-3-yl)-6,7-dihydro-5H-pyrrolo[3,4-b]pyridin-5-one], the mrna remaining at 1 µM came out at 90% and the mrna remaining at 10 µM turned out to be 79%.
Take `CN(c1ccc(N2Cc3ncc(-c4nnn(C)n4)cc3C2=O)nn1)[C@H]1C[C@]2(C)CC[C@](C)(C1)N2` [Compound 612, 6-(6-(((1R,3s,5S)-1,5-dimethyl-8-azabicyclo[3.2.1]octan-3-yl)(methyl)amino)pyridazin-3-yl)-3-(2-methyl-2H-tetrazol-5-yl)-6,7-dihydro-5H-pyrrolo[3,4-b]pyridin-5-one]: the mrna remaining at 1 µM stood at 109% and the mrna remaining at 10 µM was 15%.
The corresponding values for `Cc1nn(C)nc1-c1cnc2c(c1)C(=O)N(c1ccc(N3C[C@@H](C)NC[C@@H]3C)nn1)C2` [Compound 613, 3-(2,5-dimethyl-2H-1,2,3-triazol-4-yl)-6-(6-((2S,5R)-2,5-dimethylpiperazin-1-yl)pyridazin-3-yl)-6,7-dihydro-5H-pyrrolo[3,4-b]pyridin-5-one] are 130% and 91%.
As to `C[C@@H]1CN(c2ccc(N3Cc4ncc(-c5nn(C)nc5Cl)cc4C3=O)nn2)[C@@H](C)CN1` [Compound 614, 3-(5-chloro-2-methyl-2H-1,2,3-triazol-4-yl)-6-(6-((2S,5R)-2,5-dimethylpiperazin-1-yl)pyridazin-3-yl)-6,7-dihydro-5H-pyrrolo[3,4-b]pyridin-5-one], the mrna remaining at 1 µM came to 107% and the mrna remaining at 10 µM turned out to be 79%.
The corresponding values for `Cc1nn(C)nc1-c1cnc2c(c1)C(=O)N(c1ccc(N3CCN4CCC[C@H]4C3)nn1)C2` [Compound 615, (S)-3-(2,5-dimethyl-2H-1,2,3-triazol-4-yl)-6-(6-(hexahydropyrrolo[1,2-a]pyrazin-2(1H)-yl)pyridazin-3-yl)-6,7-dihydro-5H-pyrrolo[3,4-b]pyridin-5-one] are 81% and 53%.
The corresponding values for `Cc1nn(C)nc1-c1cnc2c(c1)C(=O)N(c1ccc(N3CCC[C@@H](NC(C)(C)C)C3)nn1)C2` [Compound 616, (R)-6-(6-(3-(tert-butylamino)piperidin-1-yl)pyridazin-3-yl)-3-(2,5-dimethyl-2H-1,2,3-triazol-4-yl)-6,7-dihydro-5H-pyrrolo[3,4-b]pyridin-5-one] are 100% and 67%.
The corresponding values for `Cn1nc(Cl)c(-c2cnc3c(c2)C(=O)N(c2ccc(N4CCC[C@@H](NC(C)(C)C)C4)nn2)C3)n1` [Compound 617, (R)-6-(6-(3-(tert-butylamino)piperidin-1-yl)pyridazin-3-yl)-3-(5-chloro-2-methyl-2H-1,2,3-triazol-4-yl)-6,7-dihydro-5H-pyrrolo[3,4-b]pyridin-5-one] are 93% and 70%.
With `CN(C)C1CCN(c2ccc(N3Cc4ncc(-c5nn(C)nc5Cl)cc4C3=O)nn2)CC1` [Compound 618, 3-(5-chloro-2-methyl-2H-1,2,3-triazol-4-yl)-6-(6-(4-(dimethylamino)piperidin-1-yl)pyridazin-3-yl)-6,7-dihydro-5H-pyrrolo[3,4-b]pyridin-5-one], the mrna remaining at 1 µM is 83% and the mrna remaining at 10 µM was 68%.
The corresponding values for `Cn1nc(Cl)c(-c2cnc3c(c2)C(=O)N(c2ccc(OC4CC(C)(C)NC5(CCC5)C4)nn2)C3)n1` (centres unmarked) [Compound 619, 3-(5-chloro-2-methyl-2H-1,2,3-triazol-4-yl)-6-(6-((6,6-dimethyl-5-azaspiro[3.5]nonan-8-yl)oxy)pyridazin-3-yl)-6,7-dihydro-5H-pyrrolo[3,4-b]pyridin-5-one] are 80% and 10%.
The corresponding values for `Cn1nc(Cl)c(-c2cnc3c(c2)C(=O)N(c2ccc(N4CCN5CCC[C@H]5C4)nn2)C3)n1` [Compound 620, (S)-3-(5-chloro-2-methyl-2H-1,2,3-triazol-4-yl)-6-(6-(hexahydropyrrolo[1,2-a]pyrazin-2(1H)-yl)pyridazin-3-yl)-6,7-dihydro-5H-pyrrolo[3,4-b]pyridin-5-one] are 93% and 55%.
Consider `CN(c1ccc(N2Cc3ncc(-c4nn(C)nc4Cl)cc3C2=O)nn1)C1CC(C)(C)NC2(CCC2)C1` (centres unmarked) [Compound 621, 3-(5-chloro-2-methyl-2H-1,2,3-triazol-4-yl)-6-(6-((6,6-dimethyl-5-azaspiro[3.5]nonan-8-yl)(methyl)amino)pyridazin-3-yl)-6,7-dihydro-5H-pyrrolo[3,4-b]pyridin-5-one], for which it took 229 nM to reach a half-maximal effect (EC50).
As to `Cc1nn(C)cc1-c1cnc2c(n1)C(=O)N(c1ccc(O[C@H]3C[C@]4(C)CC[C@](C)(C3)N4)nn1)C2` [Compound 622, 3-(1,3-dimethyl-1H-pyrazol-4-yl)-6-(6-(((1R,3s,5S)-1,5-dimethyl-8-azabicyclo[3.2.1]octan-3-yl)oxy)pyridazin-3-yl)-6,7-dihydro-5H-pyrrolo[3,4-b]pyrazin-5-one], the mrna remaining at 1 µM turned out to be 76% and the mrna remaining at 10 µM amounted to 30%.
With `Cc1nn(C)nc1-c1cnc2c(n1)C(=O)N(c1ccc(O[C@H]3C[C@]4(C)CC[C@](C)(C3)N4)nn1)C2` [Compound 623, 3-(2,5-dimethyl-2H-1,2,3-triazol-4-yl)-6-(6-(((1R,3s,5S)-1,5-dimethyl-8-azabicyclo[3.2.1]octan-3-yl)oxy)pyridazin-3-yl)-6,7-dihydro-5H-pyrrolo[3,4-b]pyrazin-5-one], the midpoint of the response, the EC50, lay at 2990 nM; the mrna remaining at 1 µM is 60%; the mrna remaining at 10 µM is 13%.
Take `Cc1nn(C)nc1-c1cnc2c(n1)C(=O)N(c1ccc(OC3CC(C)(C)NC(C)(C)C3)nn1)C2` [Compound 624, 3-(2,5-dimethyl-2H-1,2,3-triazol-4-yl)-6-(6-((2,2,6,6-tetramethylpiperidin-4-yl)oxy)pyridazin-3-yl)-6,7-dihydro-5H-pyrrolo[3,4-b]pyrazin-5-one]: the mrna remaining at 1 µM is 60% and the mrna remaining at 10 µM was 12%.
The corresponding values for `CN(c1ccc(N2Cc3ncc(-c4cnn(CC(C)(C)O)c4)nc3C2=O)nn1)[C@H]1C[C@]2(C)CC[C@](C)(C1)N2` [Compound 625, 6-(6-(((1R,3s,5S)-1,5-dimethyl-8-azabicyclo[3.2.1]octan-3-yl)(methyl)amino)pyridazin-3-yl)-3-(1-(2-hydroxy-2-methylpropyl)-1H-pyrazol-4-yl)-6,7-dihydro-5H-pyrrolo[3,4-b]pyrazin-5-one] are 81% and 108%.
The corresponding values for `CN(c1ccc(N2Cc3ncc(-c4nn(C)nc4Cl)nc3C2=O)nn1)C1CC(C)(C)NC2(CCC2)C1` (centres unmarked) [Compound 626, 3-(5-chloro-2-methyl-2H-1,2,3-triazol-4-yl)-6-(6-((6,6-dimethyl-5-azaspiro[3.5]nonan-8-yl)(methyl)amino)pyridazin-3-yl)-6,7-dihydro-5H-pyrrolo[3,4-b]pyrazin-5-one] are 98% and 28%.
Regarding `CN(c1ccc(N2Cc3ncc(-c4nn(C)nc4Cl)nc3C2=O)nn1)[C@H]1C[C@]2(C)CC[C@](C)(C1)N2` [Compound 627, 3-(5-chloro-2-methyl-2H-1,2,3-triazol-4-yl)-6-(6-(((1R,3s,5S)-1,5-dimethyl-8-azabicyclo[3.2.1]octan-3-yl)(methyl)amino)pyridazin-3-yl)-6,7-dihydro-5H-pyrrolo[3,4-b]pyrazin-5-one], the mrna remaining at 1 µM came out at 37% and the mrna remaining at 10 µM amounted to 11%.
Regarding `Cn1nc(Cl)c(-c2cnc3c(n2)C(=O)N(c2ccc(OC4CC(C)(C)NC5(CCC5)C4)nn2)C3)n1` (centres unmarked) [Compound 628, 3-(5-chloro-2-methyl-2H-1,2,3-triazol-4-yl)-6-(6-((6,6-dimethyl-5-azaspiro[3.5]nonan-8-yl)oxy)pyridazin-3-yl)-6,7-dihydro-5H-pyrrolo[3,4-b]pyrazin-5-one], the mrna remaining at 1 µM amounted to 101% and the mrna remaining at 10 µM was 20%.
The corresponding values for `CC(C)[C@H]1CN(c2ccc(N3Cc4c(F)cc(-c5cnn(C)n5)cc4C3=O)nn2)CCN1` [Compound 629, (S)-4-fluoro-2-(6-(3-isopropylpiperazin-1-yl)pyridazin-3-yl)-6-(2-methyl-2H-1,2,3-triazol-4-yl)isoindolin-1-one] are 74% and 62%.
`Cn1ncc(-c2cc(F)c3c(c2)C(=O)N(c2ccc(N4CCN[C@@H](C(C)(C)C)C4)nn2)C3)n1` [Compound 630, (S)-2-(6-(3-(tert-butyl)piperazin-1-yl)pyridazin-3-yl)-4-fluoro-6-(2-methyl-2H-1,2,3-triazol-4-yl)isoindolin-1-one]: the mrna remaining at 1 µM amounted to 106% and the mrna remaining at 10 µM came to 72%.
The corresponding values for `Cn1ncc(-c2cc(F)c3c(c2)C(=O)N(c2ccc(O[C@H]4C[C@]5(C)CC[C@](C)(C4)N5)nn2)C3)n1` [Compound 631, 2-(6-(((1R,3s,5S)-1,5-dimethyl-8-azabicyclo[3.2.1]octan-3-yl)oxy)pyridazin-3-yl)-4-fluoro-6-(2-methyl-2H-1,2,3-triazol-4-yl)isoindolin-1-one] are 86% and 69%.
`CN(c1ccc(N2Cc3c(F)cc(-c4cnn(CC(C)(C)O)c4)cc3C2=O)nn1)[C@H]1C[C@]2(C)CC[C@](C)(C1)N2` [Compound 632, 2-(6-(((1R,3s,5S)-1,5-dimethyl-8-azabicyclo[3.2.1]octan-3-yl)(methyl)amino)pyridazin-3-yl)-4-fluoro-6-(1-(2-hydroxy-2-methylpropyl)-1H-pyrazol-4-yl)isoindolin-1-one]: the mrna remaining at 1 µM is 72% and the mrna remaining at 10 µM was determined as 57%.
